According to patent publication US20080085893A1, “MATRIX METALLOPROTEASE INHIBITORS” (priority 2006, published 2008):
Several values for one entry are separate records, joined by “and”; a condition that tells them apart may be missing. Equal values may be shown once.

What was measured:
Format in all cases: biochemical
[1] = molecular target: T1, human MMP-9 (amino acids 107-446) (Homo sapiens, UniProt P14780); experiment: MMP dose response assay for determining IC50, MMP-9; settings: recombinant enzyme, fluorescent-quench substrate 100 nM; read-out: MMP-9
T1 construct: human MMP-9 (amino acids 107-446); made in house
T1 sequence (P14780 107-446): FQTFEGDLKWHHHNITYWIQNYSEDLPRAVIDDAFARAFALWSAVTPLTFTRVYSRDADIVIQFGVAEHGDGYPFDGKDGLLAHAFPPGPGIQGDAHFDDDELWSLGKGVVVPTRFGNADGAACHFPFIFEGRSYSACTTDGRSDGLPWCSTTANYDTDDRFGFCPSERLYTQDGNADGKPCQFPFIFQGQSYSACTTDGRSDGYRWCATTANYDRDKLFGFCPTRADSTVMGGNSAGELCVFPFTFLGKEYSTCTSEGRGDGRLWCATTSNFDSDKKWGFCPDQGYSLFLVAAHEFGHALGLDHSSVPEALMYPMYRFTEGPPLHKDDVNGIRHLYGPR
Method: (§1) MMP Dose Response Assay for Determining IC50
(§2) The following method was used for determining IC50 values of different inhibitor compounds against multiple MMP enzymes. Frozen stocks of recombinantly produced MMPs were prepared in assay buffer (50 mM HEPES pH 7.4, 10 mM CaCl2, 0.05% Brij-35). […] Enzyme concentrations in the assay were determined empirically and set such that proteolytic activity was maintained in a linear range over the time-course of the experiment. […] Each concentration for each test compound was tested in triplicate. MMP enzymes were equilibrated with compounds for 1 hour at room temperature, then a fluorescent-quench substrate (Acetyl-Cys(Eu)-Pro-Leu-Gly-Leu-Lys-(QSY7)-Ala-Arg-amide) was added to a final concentration of 100 nM. […] Data was analyzed by first calculating average background value from wells that contained only substrate, and this value was subtracted from the entire plate. The 100%, or maximum value, was determined by averaging control wells that contained enzyme, substrate and DMSO. For each well, the percent of control was calculated by dividing the well value by the average DMSO value obtained above.

[2] = molecular target: T2, human MMP-1 (amino acids 100-262) (Homo sapiens, UniProt P03956); experiment: MMP dose response assay for determining IC50, MMP-1; settings: recombinant catalytic domain, fluorescent-quench substrate 100 nM
T2 construct: human MMP-1 (amino acids 100-262); made in house
T2 sequence (P03956 100-262): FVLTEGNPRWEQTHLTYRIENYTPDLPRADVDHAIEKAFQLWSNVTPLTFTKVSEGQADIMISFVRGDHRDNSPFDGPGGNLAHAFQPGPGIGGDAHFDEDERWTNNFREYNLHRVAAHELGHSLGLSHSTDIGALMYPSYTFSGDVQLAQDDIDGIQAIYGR
Method: as §1, §2

[3] = molecular target: T3, human MMP-2 (amino acids 1-660) (Homo sapiens, UniProt P08253); experiment: MMP dose response assay for determining IC50, MMP-2; settings: recombinant enzyme, fluorescent-quench substrate 100 nM; read-out: MMP-2
T3 construct: human MMP-2 (amino acids 1-660); made in house
T3 sequence (P08253 110-660): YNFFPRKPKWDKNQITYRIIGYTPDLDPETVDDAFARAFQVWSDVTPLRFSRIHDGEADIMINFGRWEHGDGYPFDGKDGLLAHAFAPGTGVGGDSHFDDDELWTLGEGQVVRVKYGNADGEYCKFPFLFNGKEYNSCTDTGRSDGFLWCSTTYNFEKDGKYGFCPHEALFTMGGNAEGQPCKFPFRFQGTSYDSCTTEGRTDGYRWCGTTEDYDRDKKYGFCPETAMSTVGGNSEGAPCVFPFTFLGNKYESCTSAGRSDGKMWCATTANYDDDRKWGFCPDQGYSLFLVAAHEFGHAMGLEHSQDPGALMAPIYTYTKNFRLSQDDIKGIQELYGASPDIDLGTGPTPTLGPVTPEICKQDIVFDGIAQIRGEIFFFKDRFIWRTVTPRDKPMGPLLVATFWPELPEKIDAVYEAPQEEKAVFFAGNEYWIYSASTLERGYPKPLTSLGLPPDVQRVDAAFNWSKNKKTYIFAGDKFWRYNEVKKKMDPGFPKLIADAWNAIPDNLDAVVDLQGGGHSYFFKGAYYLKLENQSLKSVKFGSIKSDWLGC
Method: as §1, §2

IC50 [1]	IC50 [2]	IC50 [3]	Compound
1.32 nM	> 10000 nM	64.4 nM	Cc1ccc(Oc2ccc(N(C[C@H](Nc3ccc(F)cc3)C(=O)NO)S(C)(=O)=O)cc2)cc1 [Example 38, N-Hydroxy (2S)-2-(4-fluorophenyl)amino-3-{N-[4-(4-methylphenoxy)phenyl],N-methanesulfonylamino}propionamide]
0.46 nM and 1.18 nM and 1.68 nM and 0.25 nM	> 10000 nM	34.7 nM and 50.6 nM and 73.1 nM and 53 nM	Cc1ccc(Oc2ccc(N(C[C@H](Nc3cccc(F)c3)C(=O)NO)S(C)(=O)=O)cc2)cc1 [Example 39, N-Hydroxy (2S)-2-(3-fluorophenyl)amino-3-{N-[4-(4-methylphenoxy)phenyl],N-methanesulfonylamino}propionamide]
1 nM and 0.64 nM	6410 nM and 8830 nM	30.8 nM and 14.7 nM	Cc1ccc(Oc2ccc(N(C[C@H](Nc3ccc4[nH]ccc4c3)C(=O)NO)S(C)(=O)=O)cc2)cc1 [Example 40, N-Hydroxy (2S)-2-(indol-5-yl)amino-3-{N-[4-(4-methylphenoxy)phenyl],N-methanesulfonylamino}propionamide]
2.56 nM	> 10000 nM	127 nM	Cc1ccc(Oc2ccc(N(C[C@H](Nc3ccc(F)c(F)c3)C(=O)NO)S(C)(=O)=O)cc2)cc1 [Example 41, N-Hydroxy (2S)-2-(3,4-difluorophenyl)amino-3-{N-[4-(4-methylphenoxy)phenyl],N-methanesulfonylamino}propionamide]
19.9 nM	> 10000 nM	431 nM	Cc1ccc(Oc2ccc(N(C[C@H](Nc3ccc(F)c(Cl)c3)C(=O)NO)S(C)(=O)=O)cc2)cc1 [Example 42, N-Hydroxy (2S)-2-(3-chloro-4-fluorophenyl)amino-3-{N-[4-(4-methylphenoxy)phenyl],N-methanesulfonylamino}propionamide]
22 nM	> 10000 nM	336 nM	Cc1ccc(Oc2ccc(N(C[C@H](Nc3ccc(Cl)cc3)C(=O)NO)S(C)(=O)=O)cc2)cc1 [Example 43, N-Hydroxy (2S)-2-(4-chlorophenyl)amino-3-{N-[4-(4-methylphenoxy)phenyl],N-methanesulfonylamino}propionamide]
19.7 nM	> 10000 nM	333 nM	Cc1ccc(Oc2ccc(N(C[C@H](Nc3cccc(Cl)c3)C(=O)NO)S(C)(=O)=O)cc2)cc1 [Example 44, N-Hydroxy (2S)-2-(3-chlorophenyl)amino-3-{N-[4-(4-methylphenoxy)phenyl],N-methanesulfonylamino}propionamide]

The remaining lines, values behind:

Compound	IC50 [1]	IC50 [2]	IC50 [3]
CCS(=O)(=O)N(C[C@H](O)C(=O)NO)c1ccc(Oc2ccc(C)cc2)cc1 [Example 20, N-Hydroxy (2S)-2-hydroxy-3-{N-[4-(4-methylphenoxy)phenyl],N-ethylsulfonylamino}propionamide]	21.4 nM and 33.6 nM	> 10000 nM	115 nM and 169 nM
Cc1ccc(Oc2ccc(N(C[C@@H](OCc3ccccc3)C(=O)NO)S(C)(=O)=O)cc2)cc1 [Example 22, N-Hydroxy (2R)-2-benzyloxy-3-{N-[4-(4-methylphenoxy)phenyl],N-methanesulfonylamino}propionamide]	10.8 nM and 41.6 nM	> 10000 nM	210 nM and 342 nM
Cc1ccc(Oc2ccc(N(C[C@H](OCc3ccccc3)C(=O)NO)S(C)(=O)=O)cc2)cc1 [Example 23, N-Hydroxy (2S)-2-benzyloxy-3-{N-[4-(4-methylphenoxy)phenyl],N-methanesulfonylamino}propionamide]	2.6 nM and 9.22 nM	> 10000 nM	56.2 nM and 90.4 nM
Cc1ccc(Oc2ccc(N(C[C@@H](NC(C)C)C(=O)NO)S(C)(=O)=O)cc2)cc1 [Example 24, N-Hydroxy (2R)-3-{N-[4-(4-methylphenoxy)phenyl],N-methanesulfonylamino}-2-(2-propyl)aminopropionamide]	37.8 nM and 24.9 nM	> 10000 nM	187 nM and 168 nM
Cc1ccc(Oc2ccc(N(C[C@H](NCc3ccccc3)C(=O)NO)S(C)(=O)=O)cc2)cc1 [Example 25, N-Hydroxy (2S)-2-benzylamino-3-{N-[4-(4-methylphenoxy)phenyl],N-methanesulfonylamino}propionamide]	7.16 nM	> 10000 nM	202 nM
Cc1ccc(Oc2ccc(N(C[C@@H](NCc3ccccc3)C(=O)NO)S(C)(=O)=O)cc2)cc1 [Example 26, N-Hydroxy (2R)-2-benzylamino-3-{N-[4-(4-methylphenoxy)phenyl],N-methanesulfonylamino}propionamide]	93.3 nM	> 10000 nM	54.8 nM
Cc1ccc(Oc2ccc(N(C[C@H](C(=O)NO)N3CCOCC3)S(C)(=O)=O)cc2)cc1 [Example 28, N-Hydroxy (2R)-3-{N-[4-(4-methylphenoxy)phenyl],N-methanesulfonylamino}-2-(morpholin-4-yl)propionamide]	295 nM	> 10000 nM	1320 nM
Cc1ccc(Oc2ccc(N(C[C@H](N)C(=O)NO)S(C)(=O)=O)cc2)cc1 [Example 29, N-Hydroxy (2S)-2-amino-3-{N-[4-(4-methylphenoxy)phenyl],N-methanesulfonylamino}propionamide]	120 nM	> 10000 nM	670 nM
Cc1ccc(Oc2ccc(N(C[C@H](O)C(=O)NO)S(=O)(=O)Cc3ccncc3)cc2)cc1 [Example 31, N-Hydroxy (2S)-2-hydroxy-3-{N-[4-(4-methylphenoxy)phenyl],N-(pryidin-4-yl)methylsulfonylamino}propionamide]	54.2 nM	> 10000 nM	344 nM
Cc1ccc(Oc2ccc(N(C[C@H](O)C(=O)NO)S(=O)(=O)Cc3cccnc3)cc2)cc1 [Example 32, N-Hydroxy (2S)-2-hydroxy-3-{N-[4-(4-methylphenoxy)phenyl],N-(pryidin-3-yl)methylsulfonylamino}propionamide]	68.7 nM	> 10000 nM	401 nM
Cc1ccc(Oc2ccc(N(C[C@H](NCc3ccncc3)C(=O)NO)S(C)(=O)=O)cc2)cc1 [Example 33, N-Hydroxy (2S)-3-{N-[4-(4-methylphenoxy)phenyl],N-methanesulfonylamino}-2-(pyridine-4-yl)methylaminopropionamide]	1.77 nM	> 10000 nM	9.53 nM
Cc1ccc(Oc2ccc(N(C[C@H](NCc3ccccn3)C(=O)NO)S(C)(=O)=O)cc2)cc1 [Example 34, N-Hydroxy (2S)-3-{N-[4-(4-methylphenoxy)phenyl],N-methanesulfonylamino}-2-(pyridin2-yl)methylaminopropionamide]	22.9 nM	> 10000 nM	83.4 nM
Cc1ccc(Oc2ccc(N(C[C@H](NCc3cccnc3)C(=O)NO)S(C)(=O)=O)cc2)cc1 [Example 35, N-Hydroxy (2S)-3-{N-[4-(4-methylphenoxy)phenyl],N-methanesulfonylamino}-2-(pyridine-3-yl)methylaminopropionamide]	2.84 nM	> 10000 nM	16.8 nM
Cc1ccc(Oc2ccc(N(C[C@H](NCC(C)C)C(=O)NO)S(C)(=O)=O)cc2)cc1 [Example 36, N-Hydroxy (2S)-3-{N-[4-(4-methylphenoxy)phenyl],N-methanesulfonylamino}-2-(2-methylpropyl)aminopropionamide]	1.27 nM	9220 nM	11.4 nM
Cc1ccc(Oc2ccc(N(C[C@H](NC3CCCC3)C(=O)NO)S(C)(=O)=O)cc2)cc1 [Example 37, N-Hydroxy (2S)-2-cyclopentylamino-3-{N-[4-(4-methylphenoxy)phenyl],N-methanesulfonylamino}propionamide]	1.69 nM	> 10000 nM	9.98 nM
Cc1ccc(Oc2ccc(N(C[C@H](Nc3cccc(C(F)(F)F)c3)C(=O)NO)S(C)(=O)=O)cc2)cc1 [Example 45, N-Hydroxy (2S)-3-{N-[4-(4-methylphenoxy)phenyl],N-methanesulfonylamino}-2-(3-trifluorormethylphenyl)aminopropionamide]	58.3 nM	6000 nM	682 nM
